# Data from patent US20230058171A1, “NEW ORAL PHARMACEUTICAL COMPOSITION FOR CANCER THERAPY” (BOEHRINGER INGELHEIM INTERNATIONAL GMBH, priority 2021, published 2023).
# What was measured:
# [1] = Human therapeutic dose prediction
# Protocol: (§1) Preliminary pharmacokinetic (PK) data were used as supportive information for the dose decision. The human therapeutic dose was predicted based on a minimum effective AUC0-168 of 30,700 nM*h (QW), which was determined in a mouse SJSA-1 xenograft experiment. For this, the difference in plasma protein binding between human and mouse was taken into account, which translated to an effective AUC0-168 of 11,350 nM*h for QW dosing in humans. The human therapeutic dose was predicted to be 64 mg (free acid) with QW dosing.
# patients = assay: Trial 1403-0002 combination with ezabenlimab (and anti-LAG3-1): adverse events; settings: for AEs leading to Discontinuation: Dose limiting toxicity, % / AEs leading to Discontinuation: Other adverse event, % / Patients with Dose limiting toxicity (cycle one), % / Serious AEs: Cogenital Anomaly or Birth Defect, % / Serious AEs: Is Life Threatening, % / Serious AEs: Other Medically Important Serious Event, % / Serious AEs: Persists of Signif. Disability/Incapacity, % / Serious AEs: Requires or Prolongs Hospitalization, % / Serious AEs: Results in Death, % / Subjects with AEs leading to Discontinuation of trial drug, % / Subjects with AEs leading to dose reduction of trial drug, % / Subjects with any AE, % / Subjects with immune-related AEs, % / Subjects with infusion related reactions, % / Subjects with investigator defined drug-related AEs, % / Subjects with maximum CTC Grade 1, % / Subjects with maximum CTC Grade 2, % / Subjects with maximum CTC Grade 3, % / Subjects with maximum CTC Grade 4, % / Subjects with maximum CTC Grade 5, % / Subjects with serious AEs, %: triple combination D1 q3w
# SJSA-1 xenograft = assay: Mouse SJSA-1 xenograft experiment: minimum effective AUC; format: in vivo; settings: QW
# Protocol: as §1
# [2] = double combination with 240 mg ezabenlimab, 15 patients
smiles,measurement,setting,value
"Cc1c(C(=O)O)ccc2c3n(nc12)[C@@H]1[C@H](C3)N(CC2CC2)[C@@]2(C(=O)Nc3cc(Cl)ccc32)[C@H]1c1cccc(Cl)c1F [MDM2-antagonist of formula I, (2′S,3′S,3a'S,10a'S)-6-chloro-3′-(3-chloro-2-fluorophenyl)-1′-(cyclopropylmethyl)-6′-methyl-2-oxo-1,2,3′,3a′,10′,10a′-hexahydro-1′H-spiro[indole-3,2′-pyrrolo[2′,3′:4,5]pyrrolo[1,2-b]indazole]-7′-carboxylic acid]",Cmax,"[1]; at predicted human therapeutic dose, QW",680 nM
same,predicted human therapeutic dose,"[1]; free acid, QW dosing",64 mg
same,AUC(0-t),"[1]; oral, 64 mg, QW dosing in humans, corrected for plasma protein binding human vs mouse, read-out: effective AUC0-168",11.3 µM·h
same,DLTs reported after cycle 1,patients; [2],Four
same,patients with Grade ≥3 adverse events,patients; [2],eight
same,patients with Grade ≥3 anemia,patients; [2],6 patients
same,patients with Grade ≥3 lymphopenia,patients; [2],3 patients
same,patients with Grade ≥3 thrombocytopenia,patients; [2],4 patients
same,patients with a DLT during cycle 1,"patients; double combination with 240 mg ezabenlimab, 15 patients, Grade 2 neutropenia at 45 mg",One
same,safety profile,"patients; double combination, 30 mg or 45 mg + 240 mg ezabenlimab D1 q3w",manageable safety profile
same,"AEs leading to Discontinuation: Dose limiting toxicity, %",patients; 10 mg,0%
same,"AEs leading to Discontinuation: Other adverse event, %",patients; 10 mg,0%
same,"Patients with Dose limiting toxicity (cycle one), %",patients; 10 mg,0%
same,"Serious AEs: Cogenital Anomaly or Birth Defect, %",patients; 10 mg,0%
same,"Serious AEs: Is Life Threatening, %",patients; 10 mg,0%
same,"Serious AEs: Other Medically Important Serious Event, %",patients; 10 mg,0%
same,"Serious AEs: Persists of Signif. Disability/Incapacity, %",patients; 10 mg,0%
same,"Serious AEs: Requires or Prolongs Hospitalization, %",patients; 10 mg,0%
same,"Serious AEs: Results in Death, %",patients; 10 mg,0%
same,"Subjects with AEs leading to Discontinuation of trial drug, %",patients; 10 mg,0%
same,"Subjects with AEs leading to dose reduction of trial drug, %",patients; 10 mg,0%
same,"Subjects with any AE, %",patients; 10 mg,100%
same,"Subjects with immune-related AEs, %",patients; 10 mg,0%
same,"Subjects with infusion related reactions, %",patients; 10 mg,33.3%
same,"Subjects with investigator defined drug-related AEs, %",patients; 10 mg,100%
same,"Subjects with maximum CTC Grade 1, %",patients; 10 mg,33.3%
same,"Subjects with maximum CTC Grade 2, %",patients; 10 mg,66.7%
same,"Subjects with maximum CTC Grade 3, %",patients; 10 mg,0%
same,"Subjects with maximum CTC Grade 4, %",patients; 10 mg,0%
same,"Subjects with maximum CTC Grade 5, %",patients; 10 mg,0%
same,"Subjects with serious AEs, %",patients; 10 mg,0%
same,"AEs leading to Discontinuation: Dose limiting toxicity, %",patients; 20 mg,0%
same,"AEs leading to Discontinuation: Other adverse event, %",patients; 20 mg,0%
same,"Patients with Dose limiting toxicity (cycle one), %",patients; 20 mg,0%
same,"Serious AEs: Cogenital Anomaly or Birth Defect, %",patients; 20 mg,0%
same,"Serious AEs: Is Life Threatening, %",patients; 20 mg,0%
same,"Serious AEs: Other Medically Important Serious Event, %",patients; 20 mg,0%
same,"Serious AEs: Persists of Signif. Disability/Incapacity, %",patients; 20 mg,0%
same,"Serious AEs: Requires or Prolongs Hospitalization, %",patients; 20 mg,66.7%
same,"Serious AEs: Results in Death, %",patients; 20 mg,0%
same,"Subjects with AEs leading to Discontinuation of trial drug, %",patients; 20 mg,0%
same,"Subjects with AEs leading to dose reduction of trial drug, %",patients; 20 mg,0%
same,"Subjects with any AE, %",patients; 20 mg,100%
same,"Subjects with immune-related AEs, %",patients; 20 mg,33.3%
same,"Subjects with infusion related reactions, %",patients; 20 mg,0%
same,"Subjects with investigator defined drug-related AEs, %",patients; 20 mg,100%
same,"Subjects with maximum CTC Grade 1, %",patients; 20 mg,0%
same,"Subjects with maximum CTC Grade 2, %",patients; 20 mg,0%
same,"Subjects with maximum CTC Grade 3, %",patients; 20 mg,100%
same,"Subjects with maximum CTC Grade 4, %",patients; 20 mg,0%
same,"Subjects with maximum CTC Grade 5, %",patients; 20 mg,0%
same,"Subjects with serious AEs, %",patients; 20 mg,66.7%
same,"AEs leading to Discontinuation: Dose limiting toxicity, %",patients; 30 mg,0%
same,"AEs leading to Discontinuation: Other adverse event, %",patients; 30 mg,0%
same,"Patients with Dose limiting toxicity (cycle one), %",patients; 30 mg,0%
same,"Serious AEs: Cogenital Anomaly or Birth Defect, %",patients; 30 mg,0%
same,"Serious AEs: Is Life Threatening, %",patients; 30 mg,0%
same,"Serious AEs: Other Medically Important Serious Event, %",patients; 30 mg,0%
same,"Serious AEs: Persists of Signif. Disability/Incapacity, %",patients; 30 mg,0%
same,"Serious AEs: Requires or Prolongs Hospitalization, %",patients; 30 mg,66.7%
same,"Serious AEs: Results in Death, %",patients; 30 mg,0%
same,"Subjects with AEs leading to Discontinuation of trial drug, %",patients; 30 mg,0%
same,"Subjects with AEs leading to dose reduction of trial drug, %",patients; 30 mg,33.3%
same,"Subjects with any AE, %",patients; 30 mg,100%
same,"Subjects with immune-related AEs, %",patients; 30 mg,0%
same,"Subjects with infusion related reactions, %",patients; 30 mg,0%
same,"Subjects with investigator defined drug-related AEs, %",patients; 30 mg,100%
same,"Subjects with maximum CTC Grade 1, %",patients; 30 mg,0%
same,"Subjects with maximum CTC Grade 2, %",patients; 30 mg,33.3%
same,"Subjects with maximum CTC Grade 3, %",patients; 30 mg,33.3%
same,"Subjects with maximum CTC Grade 4, %",patients; 30 mg,33.3%
same,"Subjects with maximum CTC Grade 5, %",patients; 30 mg,0%
same,"Subjects with serious AEs, %",patients; 30 mg,66.7%
same,"AEs leading to Discontinuation: Dose limiting toxicity, %",patients; 45 mg,0%
same,"AEs leading to Discontinuation: Other adverse event, %",patients; 45 mg,0%
same,"Patients with Dose limiting toxicity (cycle one), %",patients; 45 mg,0%
same,"Serious AEs: Cogenital Anomaly or Birth Defect, %",patients; 45 mg,0%
same,"Serious AEs: Is Life Threatening, %",patients; 45 mg,0%
same,"Serious AEs: Other Medically Important Serious Event, %",patients; 45 mg,0%
same,"Serious AEs: Persists of Signif. Disability/Incapacity, %",patients; 45 mg,0%
same,"Serious AEs: Requires or Prolongs Hospitalization, %",patients; 45 mg,50.0%
same,"Serious AEs: Results in Death, %",patients; 45 mg,0%
same,"Subjects with AEs leading to Discontinuation of trial drug, %",patients; 45 mg,0%
same,"Subjects with AEs leading to dose reduction of trial drug, %",patients; 45 mg,50.0%
same,"Subjects with any AE, %",patients; 45 mg,100%
same,"Subjects with immune-related AEs, %",patients; 45 mg,0%
same,"Subjects with infusion related reactions, %",patients; 45 mg,0%
same,"Subjects with investigator defined drug-related AEs, %",patients; 45 mg,100%
same,"Subjects with maximum CTC Grade 1, %",patients; 45 mg,0%
same,"Subjects with maximum CTC Grade 2, %",patients; 45 mg,50.0%
same,"Subjects with maximum CTC Grade 3, %",patients; 45 mg,0%
same,"Subjects with maximum CTC Grade 4, %",patients; 45 mg,50.0%
same,"Subjects with maximum CTC Grade 5, %",patients; 45 mg,0%
same,"Subjects with serious AEs, %",patients; 45 mg,50.0%
same,"AEs leading to Discontinuation: Dose limiting toxicity, %",patients; Total,0%
same,"AEs leading to Discontinuation: Other adverse event, %",patients; Total,0%
same,"Patients with Dose limiting toxicity (cycle one), %",patients; Total,0%
same,"Serious AEs: Cogenital Anomaly or Birth Defect, %",patients; Total,0%
same,"Serious AEs: Is Life Threatening, %",patients; Total,0%
same,"Serious AEs: Other Medically Important Serious Event, %",patients; Total,0%
same,"Serious AEs: Persists of Signif. Disability/Incapacity, %",patients; Total,0%
same,"Serious AEs: Requires or Prolongs Hospitalization, %",patients; Total,45.5%
same,"Serious AEs: Results in Death, %",patients; Total,0%
same,"Subjects with AEs leading to Discontinuation of trial drug, %",patients; Total,0%
same,"Subjects with AEs leading to dose reduction of trial drug, %",patients; Total,18.2%
same,"Subjects with any AE, %",patients; Total,100%
same,"Subjects with immune-related AEs, %",patients; Total,9.1%
same,"Subjects with infusion related reactions, %",patients; Total,9.1%
same,"Subjects with investigator defined drug-related AEs, %",patients; Total,100%
same,"Subjects with maximum CTC Grade 1, %",patients; Total,9.1%
same,"Subjects with maximum CTC Grade 2, %",patients; Total,36.4%
same,"Subjects with maximum CTC Grade 3, %",patients; Total,36.4%
same,"Subjects with maximum CTC Grade 4, %",patients; Total,18.2%
same,"Subjects with maximum CTC Grade 5, %",patients; Total,0%
same,"Subjects with serious AEs, %",patients; Total,45.5%
same,minimum effective AUC0-168,SJSA-1 xenograft,"30,700 nM*h"
